The record followed here is patent publication US20130196996A1, “USE OF ISOXAZOLINE COMPOUNDS AND COMPOSITIONS IN BLADDER CANCER” (CPSI STOCKHOLDER TRUST, priority 2010, published 2013).

Values joined by “and” are separate entries in the source; they are usually repeats but may differ in a detail not shown here. Equal values may be shown once.

Series [1] deals with BBN model of bladder cancer. Description: BBN model of bladder cancer, Experiment 1: bladder weight and pathology after oral gavage. Format: in vivo, C57Bl/6 mice. The note with it: for average bladder weight: Experiment 1, 25 mg/kg gavage weeks 16-22, control 0.5±0.5 gm; for mean of tissue involved with invasive disease (tumor burden) / upper tract obstruction (hydro-ureteronephrosis) at euthanasia: Experiment 1, 25 mg/kg gavage; for mean of tissue involved with invasive disease (tumor burden): SD ±30% (2705), ±32% (1306), control 81%; for upper tract obstruction (hydro-ureteronephrosis) at euthanasia: majority of control animals obstructed; for mean percentage of tumors representing invasive disease (FIG. 4E) / representative bladder tumor stage on H&E pathology: Experiment 1, 25 mg/kg; for mean percentage of tumors representing invasive disease (FIG. 4E): in words; for representative bladder tumor stage on H&E pathology: vehicle group infiltrative pT3 cancer; for Pieces involved / Pieces involved, in situ % / Pieces involved, inv % (invasive) / Squamous met and normal: Table 1, individual animal bladders, 25 mg/kg gavage weeks 16-22, 25 mg/kg. Here is the method: (§1) Three-month old C57Bl/6 mice were purchased from Jackson Laboratories (Bar Harbor, Me.) and Charles River (Wilmington, Mass.). The animals were maintained at the University of Connecticut Center for Laboratory Animal Care under National Institutes of Health guidelines. All procedures were approved by an institutional animal care committee. The mice were housed in a controlled environment with a 12 hour light-12 hour dark cycle and provided food and water ad libitum.
(§2) All animals received BBN(N-butyl-N-(4-hydroxybutyl)-nitrosamine, TCI America, Portland, Oreg.) 0.05% in water in brown bottles for 22 weeks. BBN is known to induce cancer in the bladder. Mice were treated with either the CPSI compounds or vehicle for weeks 16-22. Timing of dosing was intended to correspond with the timeframe of tumor progression from CIS to invasive disease, as determined in prior experiments.
(§3) Thirty 3-month old male mice (n=10/group) were gavage fed either vehicle (PEG 300, methylcellulose) (control group), CPSI-2705, or CPSI-1306 at 25 mg/kg for weeks 16-22.
(§4) Animals were inspected daily for general health with weights recorded at least biweekly and more frequently in the last several weeks based on recorded weight loss. Animals were euthanized by CO2 inhalation and cervical dislocation. Bladders were harvested, weighed, placed in PBS/formaldehyde for 24 hours and then transferred to PBS. Upper tracts (kidney and ureters) were inspected for hydronephrosis. Bladders were assessed for tumor stage and grade and amount of pathologic involvement with invasive disease. Bladders were sectioned in the mid-sagital plane, laid flat on the medial surface and step sectioned for whole mount pathologic analysis. Haematoxylin and eosin (H&E) staining was carried out to assess for histology and pathology. Bladders were step sectioned, embedded in paraffin, serially sectioned and stained with H&E and assessed for tumor stage and grade and amount of pathologic involvement with invasive disease. A single pathologist reviewed all slides in a blinded manner to provide a pathological diagnosis. As a tumor develops in the bladder, the size and weight of the bladder increases. Bladder weight is therefore a useful surrogate for bladder tumor burden, representing the relative amount of bladder tumor that develops during continual exposure to the carcinogen, BBN.
(§5) Values shown are means±SEM. […] Statistical analysis was performed using SPSS® version 2.03 (San Rafael, Calif.). Differences were examined by one-way analysis of variance (ANOVA) followed by the post-hoc Dunnett's test.

Series [2] has as its system BBN model of bladder cancer. Description: BBN model of bladder cancer, Experiment 2: escalating dose of CPSI-1306. Format: in vivo, C57Bl/6 mice. The note with it: for mean bladder weights at euthanasia as surrogate for tumor volume, effect vs vehicle: p<0.05 Dunnett post-hoc. Here is the method:
as §1, §2
Sixty 3-month old male mice (n=˜8/group) were gavage fed an escalating dose of CPSI-1306 (0.001, 0.01, 0.1, 1.0, 10 or 25 mg/kg) or vehicle (PEG 400, H2O) for weeks 16-22.
as §4, §5

Series [3] in a line: Body weight, general health and survival of BBN mice, Experiment 1. Format: in vivo. As for the experimental part:
as §2, §3
Animals were inspected daily for general health with weights recorded at least biweekly and more frequently in the last several weeks based on recorded weight loss. Animals were euthanized by CO2 inhalation and cervical dislocation. Bladders were harvested, weighed, placed in PBS/formaldehyde for 24 hours and then transferred to PBS. Upper tracts (kidney and ureters) were inspected for hydronephrosis. Bladders were assessed for tumor stage and grade and amount of pathologic involvement with invasive disease. […] Bladders were step sectioned, embedded in paraffin, serially sectioned and stained with H&E and assessed for tumor stage and grade and amount of pathologic involvement with invasive disease. […]

The mark [4] stands for this setting: Experiment 2, dose escalation, in words.

As to `O=C(C[C@H]1CC(c2ccc(F)cc2F)=NO1)N1CCOCC1` [CPSI-1306], in series [1], the average bladder weight was 0.2±0.2 gm, the “mean of tissue involved with invasive disease (tumor burden)” value came out at 59%, the “upper tract obstruction (hydro-ureteronephrosis) at euthanasia” value was “none seen” and the “mean percentage of tumors representing invasive disease (FIG. 4E)” value is “Smaller tumors with a smaller percentage of invasiveness”. In addition, in series [1], the “representative bladder tumor stage on H&E pathology” value is given as “focal pT3 with areas of normal mucosa”; the Pieces involved is 4 (6×) and 2 and 7 and 6 and 3 − inv, 1 − in situ; the “Pieces involved, in situ %” value is 5% (2×) and (15 + 15%) and 10% (2×) and 15%; the “Pieces involved, inv % (invasive)” value is 25% and (15 + 15%) and (20%) and (90%) (2×) and (95%) and 35% and 70% and 80% and 65%. Also, the “Squamous met and normal” value in series [1] is 70% (2×) and 80% and 10% (3×) and <5% and 55% and 25% and 20%. For the same compound, the “mean bladder weight, fold less than control group” value in series [1] (Experiment 1, FIG. 1, p=0.06) was 2.5 fold. The “mean bladder weights at euthanasia as surrogate for tumor volume, effect vs vehicle” value in series [2] (Experiment 2, 0.1 mg/kg gavage weeks 16-22) is “significant effect”. The “mean bladder weights at euthanasia as surrogate for tumor volume, effect vs vehicle” value in series [2] (Experiment 2, 1.0 mg/kg gavage weeks 16-22) was “significant effect”. Further, in series [2] (setting [4]), the “mean percentage of tumor representing invasive disease (FIG. 5B)” value is “Smaller tumors with a smaller percentage of invasiveness” and the “percentage of bladders in each dosing group with each pathologic stage (FIG. 5A)” value is “A decrease in the percentage of higher stage tumors”. The “general health appearance during drug treatment” value in series [3] (Experiment 1, 25 mg/kg gavage, compared to the other two treatment arms) was “appeared healthier”.
In the case of `CN(C(=O)C[C@H]1CC(c2ccc(Cl)cc2)=NO1)C1CCCCC1` [CPSI-2705], in series [1], the average bladder weight was 0.3±0.3 gm, the “mean of tissue involved with invasive disease (tumor burden)” value came to 62%, the “upper tract obstruction (hydro-ureteronephrosis) at euthanasia” value was “Fewer animals were noted to have obstruction” and the “mean percentage of tumors representing invasive disease (FIG. 4E)” value is recorded as “Smaller tumors with a smaller percentage of invasiveness”. Also, in series [1], the “representative bladder tumor stage on H&E pathology” value is listed as “pT1 disease”; the Pieces involved is 8 (3×) and 2 (2×) and 6 and 4 (2×) and 1 − inv, 3 − in situ and 10; the “Pieces involved, in situ %” value was 10% (2×) and 5% (2×) and 20%; the “Pieces involved, inv % (invasive)” value is 80% and 85% and (60%) and (70%) and 60% and (30%) and 10% and 30% and (95%) (2×). The “Squamous met and normal” value in series [1] was 10% (2×) and 40% and 30% (2×) and 70% (2×) and 65% and <5% (2×). Besides, in series [3] (Experiment 1, n=10/group, 25 mg/kg gavage, control also two), the “animals died prior to completion of the study” value is “Two”.
